Assays:
[1] = in vivo; cited from earlier work
[2] = assay type: in vitro ADME, hairless guinea pig
Protocol: Aliquots (100 μg) of peptide were incubated at 37° C. with skin extract (1 mL) over the indicated periods of time. The remaining peptide was separated and quantified by HPLC. The data represent averages of duplicate experiments;
The incubation of peptides (PTH(1-34), left panel and PTH(1-34) amide, right panel) with skin extracts, over the indicated times, was conducted as described in Example 2. Fractions containing the peaks were collected, lyophilized and the masses were determined by MALDI-TOF.
Hairless guinea pig skin extracts (1 mL aliquots) were prepared from samples of plasma and skin extracts, respectively, and stored at about −20° C. Stock solutions of hPTH(1-34), hPTH(1-34)NH2, hPTH (1-34)NH-propyl, and hPTH (1-34)NH-phenylpropyl were prepared in HPLC-grade water to achieve a concentration of 10 mg of peptide/mL. Aliquots of skin extracts (1 ml) were incubated at 37° C. for 10 minutes prior to the addition of peptide (100 μg; 10 μL stock solution) or water (10 μL) (control). […]
The lyophilized samples were resuspended in 200 μL of 0.1 N acetic acid and centrifuged at 13,000 g for 15 minutes at room temperature. […] Fractions containing the metabolites of PTH derivatives were collected, concentrated by lyophilization and their masses determined by MALDI-TOF MS (using Voyager-DE Perseptive Biosystems according to the manufacture's procedure).

Substance	potency in anabolic actions on the bone relative to PTH(1-34) [1]	stimulation of resorption markers [1]	site of degradation by skin proteases [2]
PTH (1-31)	as potent as PTH(1-34)	without stimulating resorption markers	
hPTH(1-34) [PTH (1-34)]			takes place at the carboxyterminal end

Reference: patent US20040023882A1, “PTH derivatives resistant to skin proteases” (priority 2002, published 2004)
